Assay results taken from US11986482B2, “Method of promoting antitumor or anti-cancer immunity” (City University of Hong Kong, priority 2021, dated 2024).
“Also recorded” adds a separate entry of the source.

Assays:
[1] = system: PD-L1; assay: PD-L1 internalization assay (surface anti-PD-L1 antibody labelling, Rab5 colocalization) in HeLa cells; assay type: cell-based; settings: HeLa cells pretreated 3 h; Pitstop2 30 uM, Filipin III 5 mg/mL
Description: Without intending to be limited by theory, it is believed that the endosomal trafficking of PD-L1, a type I membrane protein, remains poorly studied thus far. In the fixed HeLa cells stained with anti-PD-L1 antibody, HeLa cells are plated on coverslips in 24-well plates and fixed after 24 h. Cells are then co-stained with antibodies against PD-L1 and Rab5, LAMP1, CD63, Rab27A, Rab11. […] Thus, inventors speculate that PD-L1 at the cell surface may be subjected to an active endosomal trafficking process. To monitor the PD-L1's endosomal trafficking process, inventors label the PD-L1 at the cell surface in the live cells with an anti-PD-L1 antibody on ice for 1 h. They then incubate the cells with the warm medium at 37° C. for the indicated times to initiate the internalization of the PD-L1 antibody complex, followed by the immunostaining of RAB5, EEA1, LAMP1, or RAB11. […] In addition, HeLa cells are pretreated with Fillilin III (5 mg/mL) or Pistop2 (30 uM) for 3 h, then stained with the anti-PD-L1 antibody on ice for 1 h. At the indicated times after being incubated with a warm medium at 37° C., the cells are fixed and stained with an anti-Rab5 antibody. […] Furthermore, Rab5-knockout HeLa cells are transfected with CD63-mcherry and stained with the anti-PD-L1 antibody on ice for 1 h. After being incubated for 1.5 h in a warm medium at 37° C., the cells are fixed and imaged.

[2] = system: 4T1 cells; assay: Extracellular vesicle concentration, Nanosight nanoparticle analyzer, 4T1 cells; assay type: cell-based, mouse; settings: 4T1 cells, GW4869 10 μM with 6J1 1 μM
Description: (§1) The current PD-L1 and PD1 therapies apply PD-L1 or PD1 monoclonal antibodies to block the PD-L1/PD1 signaling, which results in cytotoxic T cells recognizing and killing the tumor cells. […] First, flow cytometry-based quantification of plasma membrane levels of PD-L1 in 4T1 cells treated with or without 6J1 (1 μM) for 24 h. 4T1 cells are treated with or without 6J1 (1 μM) for 24 h. The supernatant is collected, and the concentration of extracellular vesicle is determined using a Nanosight nanoparticle analyzer in FIG. 8b. The exosomes are also collected and subjected to western blot analysis of the EVs marker and PD-L1 in FIG. 8c.
To assess whether the in vivo antitumor growth effect of 6J1 is related to its effect on PD-L1 in 4T1 cells, inventors knock out PD-L1 via CRISPR/Cas9 in 4T1 cells (FIG. 10a). 4T1-NC or 4T1-PD-L1 knockout cells are treated with or without 6J1 (1 μM) for 24 h. The supernatant is collected, and the concentration of extracellular vesicle is determined using a Nanosight nanoparticle analyzer. The exosomes are also collected and subjected to western blot analysis of the EVs marker and PD-L1. […] Inventors then transplant control or PD-L1-knockout 4T1 cells into the fat pad of syngeneic female Balb/c mice. The mice are randomly divided (n=5 per group) and treated with either buffer or 6J1 (30 mg/kg, daily) via oral gavage.
Therefore, it is possible that the increased exosomal PD-L1 secretion induced by 6J1 may still suppress the tumor-infiltrating T cell cytotoxicity in vivo, even though 6J1 reduces the cell surface expression level of PD-L1 on the tumor cells. To evaluate the role of exosomal PD-L1 in the tumor microenvironment and tumor progression in mice, inventors knock out Rab27a in 4T1 cells to inhibit the secretion of exosomes. 4T1-shNC or 4T1-shRab27A cells are treated with or without 6J1 (1 μM). The supernatant is collected, and the concentration of extracellular vesicle is determined using a Nanosight nanoparticle analyzer. […] Inventors analyze the plasma membrane levels of PD-L1 in 4T1-shNC or 4T1-shRab27A cells treated with or without 6J1 (1 μM). […]

[3] = system: PD-L1; assay: Plasma membrane PD-L1 level in 4T1 cells (flow cytometry); assay type: cell-based, mouse; settings: 4T1 cells, GW4869 10 μM with 6J1 1 μM
Description: as §1
Therefore, it is possible that the increased exosomal PD-L1 secretion induced by 6J1 may still suppress the tumor-infiltrating T cell cytotoxicity in vivo, even though 6J1 reduces the cell surface expression level of PD-L1 on the tumor cells. To evaluate the role of exosomal PD-L1 in the tumor microenvironment and tumor progression in mice, inventors knock out Rab27a in 4T1 cells to inhibit the secretion of exosomes. 4T1-shNC or 4T1-shRab27A cells are treated with or without 6J1 (1 μM). The supernatant is collected, and the concentration of extracellular vesicle is determined using a Nanosight nanoparticle analyzer. […] Inventors analyze the plasma membrane levels of PD-L1 in 4T1-shNC or 4T1-shRab27A cells treated with or without 6J1 (1 μM). […] Next, control or Rab27a-knockout 4T1 cells are orthotopically transplanted into syngeneic fat pads of female Balb/c. The mice are randomly divided (n=5 per group) and treated with either buffer or 6J1 (30 mg/kg, daily) via oral gavage. […] Inventors also perform the immunostaining of CD8 and Granzyme B in the tumor sections. […] Since enhanced antitumor immunity leads to increased apoptosis in tumors, inventors assess the levels of cleaved caspase3 (CCA3), one of the markers of apoptosis, in tumor sections as well.
Finally, inventors assess the combinatory effects of 6J1 with GW4869, an exosome secretion inhibitor, in the aforementioned orthotopic mammary carcinoma mouse models. […]

[4] = system: PD-L1; assay: Western blot of PD-L1 in total cell lysates and exosomes of HeLa cells; assay type: cell-based; settings: HeLa cells, 48 h, Bafilomycin A1 10 nM, Torin 1 100 nM; for exosomal PD-L1 level: ionomycin 1 μM, 6J1 1 μM
Description: PD-L1 has been previously shown to be secreted outside the cell through exosomes. HeLa cells are plated on coverslips in 24-well plates and stained with the anti-PD-L1 antibody on ice for 1 h. At the indicated times after being incubated at a warm medium at 37° C., cells are fixed and stained with antibodies against CD63 or Rab27a. […] Cells are treated with or without ionomycin (1 μM) for 48 h. The supernatant is collected and subjected to western blot analysis. […] Since the amphisome, which is formed by the fusion of the autophagosome with the MVB/late endosome, has been implicated in extracellular vesicles secretion, and PD-L1 is found to be associated with LC3B during PD-L1 trafficking (FIG. 2a), inventors examine whether the autophagosome formation is involved in exosomal PD-L1 secretion. Thus, inventors knock out the expression of Rab27A, LC3B or ATG4B in HeLa cells and collect their supernatant respectively for western blot analysis.
Furthermore, HeLa cells are treated with or without Bafilomycin A1 (10 nM), or Torin 1 (100 nM) for 48 h. The cell lysates and supernatant are collected for western blot analysis. […] In contrast, Torin1, an autophagy activator, has little effect on total and exosomal PD-L1 levels (FIG. 2g). […] On the other hand, blockage on the fusion between lysosomes and late endosomes or autophagosomes may induce PD-L1 secretion via exosomes.
It has previously been shown that interfering with endosomal trafficking promotes exosome secretion. Moreover, PD-L1 has been reported to be enriched in exosomes and secreted outside the cell. Thus, inventors speculate that 6J1 may induce the secretion of the PD-L1 trapped in the endosomal compartments via exosomes. To determine whether 6J1 may induce the secretion of PD-L1 via exosomes, HeLa cells are treated with or without 6J1 (1 μM) for 24 h. The supernatant is collected. Inventors purify the exosomes from the supernatant of HeLa cells by sequential centrifugation. The concentration of extracellular vesicle is determined using a Nanosight nanoparticle analyzer. And HeLa cells are treated with or without 6J1 (1 μM) for 48 h. The cell and supernatant are collected for Western Blot analysis. […] Moreover, the activity of Rab27a in HeLa cells treated with or without 6J1 (1 μM) is examined with a GST-SHD pulldown assay.
Moreover, ATG5- or LC3-knockout HeLa cells are treated with or without 6J1 (1 μM) for 24 h. The supernatant is collected, and the concentration of the extracellular vesicle is determined using a Nanosight nanoparticle analyzer. The exosomes are also collected and subjected to western blot analysis of the EVs marker and PD-L1 in FIG. 7a. The live cells are also labeled with an anti-PD-L1 antibody in FIG. 7b and subjected to flow cytometry analysis in FIG. 7c. […] In addition, inventors assess whether other autophagy-related genes, e.g., ATG4B, ATG7, Beclin1, and Vps34 are involved in 6J1-mediated exosomal PD-L1 secretion. ATG4B-, ATG7-, Beclin1-, or VPS34-knockout HeLa cells are treated with or without 6J1 (1 μM) for 24 h. The supernatant is collected, and the concentration of extracellular vesicle is determined using a Nanosight nanoparticle analyzer. The exosomes are also collected and subjected to western blot analysis of the EVs marker and PD-L1 in FIG. 7d. The live cells are also labeled with an anti-PD-L1 antibody and subjected to flow cytometry analysis in FIG. 7e.

Row | SMILES | internalization of PD-L1 [1] | total PD-L1 level in cells [4] | exosomal PD-L1 level [4] | also measured
1 | CCCCC[C@@H](O)[C@H]1C(=O)O[C@H](C)[C@@H](O)/C=C/C=C/C=C/C=C/C=C(\C)[C@@H](O)C[C@H](O)C[C@H](O)C[C@H](O)C[C@H](O)C[C@H](O)C[C@@H]1O [Filipin III] | does not affect the internalization of PD-L1 | – | – | –
2 | O=C(C=Cc1ccc(C=CC(=O)Nc2ccc(C3=NCCN3)cc2)cc1)Nc1ccc(C2=NCCN2)cc1 [GW4869, reference compound] | – | – | – | effect of GW4869 on 6J1-induced exosome secretion [2]: inhibits exosome secretion of 4T1 cells induced by 6J1; effect of GW4869 on 6J1-mediated reduction of cell surface PD-L1 [3]: does not impair 6J1-mediated reduction of cell surface PD-L1
3 | O=C1NC(=NS(=O)(=O)c2cccc3ccccc23)S/C1=C\c1ccc(Br)cc1 [Pitstop2] | blocks the internalization of PD-L1 | – | – | –
4 | CCC(=O)N1CCN(c2ccc(-n3c(=O)ccc4cnc5ccc(-c6cnc7ccccc7c6)cc5c43)cc2C(F)(F)F)CC1 [Torin1] | – | little effect | little effect | –
5 | CO/C1=C\C(C)=C\[C@@H](C)[C@@H](O)[C@@H](C)C/C(C)=C/C=C/[C@H](OC)[C@@H]([C@@H](C)[C@@H](O)[C@H](C)[C@@]2(O)C[C@@H](O)[C@H](C)[C@@H](C(C)C)O2)OC1=O [bafilomycin A1] | – | markedly increases | markedly increases | –
6 | C[C@H](CCC(=O)O)C[C@H](C)C[C@H](C)C(=O)/C=C(\O)[C@H](C)C[C@H](C)C/C=C/[C@@H](C)[C@@H](O)[C@@H](C)[C@@H](O)C[C@@H]1CC[C@@](C)([C@H]2CC[C@@](C)([C@@H](C)O)O2)O1 [ionomycin] | – | – | markedly increases the exosomal PD-L1 level; also recorded: markedly increased exosomal PD-L1 level | –
